Measurements reported in the CheMixHub ionic liquid set.
± gives the uncertainty stated by the source.

Experiment: xn = mol fraction of the nth substance listed

N[C@@H](Cc1ccccc1)C(=O)O + CCCC[n+]1ccn(C)c1.[Br-] + O
viscosity [mPa·s], 101.3 kPa
Conditions | x1 = 0.0003605, x2 = 0 | x1 = 0.0007251, x2 = 0 | x1 = 0.001079, x2 = 0 | x1 = 0.001441, x2 = 0 | x1 = 0.001797, x2 = 0 | x1 = 0.00216, x2 = 0 | x1 = 0.002516, x2 = 0
293.15 K | 1.01 ± 0.1 | 1.02 ± 0.1 | 1.03 ± 0.1 | 1.05 ± 0.1 | 1.06 ± 0.1 | 1.08 ± 0.1 | 1.09 ± 0.1
298.15 K | 0.8 ± 0.1 | 0.81 ± 0.1 | 0.83 ± 0.1 | 0.84 ± 0.1 | 0.85 ± 0.1 | 0.87 ± 0.1 | 0.88 ± 0.1
303.15 K | 0.71 ± 0.1 | 0.72 ± 0.1 | 0.74 ± 0.1 | 0.75 ± 0.1 | 0.76 ± 0.1 | 0.78 ± 0.1 | 0.79 ± 0.1
308.15 K | 0.63 ± 0.1 | 0.64 ± 0.1 | 0.66 ± 0.1 | 0.67 ± 0.1 | 0.68 ± 0.1 | 0.7 ± 0.1 | 0.71 ± 0.1
313.15 K | 0.57 ± 0.1 | 0.58 ± 0.1 | 0.59 ± 0.1 | 0.6 ± 0.1 | 0.62 ± 0.1 | 0.63 ± 0.1 | 0.64 ± 0.1

O=C1O[C@H]([C@@H](O)CO)C(O)=C1O + CCCC[n+]1ccn(C)c1.[Br-] + O
viscosity [mPa·s], 100 kPa
Conditions | 293.15 K | 298.15 K | 303.15 K | 308.15 K | 313.15 K | 318.15 K
x1 = 0.0003765, x2 = 0 | 1.008 ± 0.032 | 0.898 ± 0.031 | 0.804 ± 0.031 | 0.725 ± 0.031 | 0.66 ± 0.031 | 0.607 ± 0.031
x1 = 0.0007293, x2 = 0 | 1.013 ± 0.032 | 0.903 ± 0.031 | 0.809 ± 0.031 | 0.73 ± 0.031 | 0.665 ± 0.031 | 0.612 ± 0.031
x1 = 0.001087, x2 = 0 | 1.017 ± 0.032 | 0.908 ± 0.031 | 0.814 ± 0.031 | 0.735 ± 0.031 | 0.67 ± 0.031 | 0.617 ± 0.031
x1 = 0.001456, x2 = 0 | 1.023 ± 0.032 | 0.914 ± 0.031 | 0.819 ± 0.031 | 0.74 ± 0.031 | 0.674 ± 0.031 | 0.621 ± 0.031
x1 = 0.001827, x2 = 0 | 1.028 ± 0.032 | 0.919 ± 0.031 | 0.825 ± 0.031 | 0.745 ± 0.031 | 0.679 ± 0.031 | 0.626 ± 0.031
x1 = 0.002192, x2 = 0 | 1.035 ± 0.032 | 0.924 ± 0.031 | 0.831 ± 0.031 | 0.75 ± 0.031 | 0.684 ± 0.031 | 0.632 ± 0.031

COC(=O)OC + CCCCn1cc[n+](C)c1C.O=S(=O)([N-]S(=O)(=O)C(F)(F)F)C(F)(F)F
101.3 kPa, x2 = 0
Conditions | viscosity [mPa·s]
288.15 K | 0.668 ± 0.015
293.15 K | 0.628 ± 0.014
298.15 K | 0.588 ± 0.013
303.15 K | 0.553 ± 0.012
308.15 K | 0.524 ± 0.011
313.15 K | 0.498 ± 0.011

CCC(=O)[O-].CC[NH+]1CCNCC1 + CCCO
101 kPa
Conditions | viscosity [mPa·s]
298.15 K, x2 = 0.4017 | 47.45 ± 0.8
308.15 K, x2 = 0.3041 | 39.45 ± 0.67

CCCCCCCCn1cc[n+](C)c1.[Cl-] + CCCO
101 kPa
Conditions | viscosity [mPa·s]
298.15 K, x2 = 0 | 21000
298.15 K, x2 = 0.7248 | 19.25 ± 0.49
298.15 K, x2 = 0.9024 | 4.6 ± 0.13
313.15 K, x2 = 0.407 | 160 ± 17
328.15 K, x2 = 0 | 1091 ± 300
328.15 K, x2 = 0.1071 | 560 ± 120
328.15 K, x2 = 0.2407 | 231 ± 32
328.15 K, x2 = 0.3036 | 144 ± 14
328.15 K, x2 = 0.6209 | 17.73 ± 0.45
328.15 K, x2 = 0.7248 | 8.25 ± 0.22
328.15 K, x2 = 0.94 | 1.679 ± 0.051
328.15 K, x2 = 0.9729 | 1.372 ± 0.043

CC[n+]1ccn(C)c1.N#C[S-] + CCCO
viscosity [mPa·s], 101 kPa
Conditions | 283.15 K | 293.15 K | 303.15 K | 313.15 K | 323.15 K
x1 = 0.0494 | 3.32 ± 0.07 | 2.6 ± 0.07 | 2.07 ± 0.07 | 1.68 ± 0.07 | 1.38 ± 0.07
x1 = 0.0994 | 4.04 ± 0.08 | 3.12 ± 0.07 | 2.47 ± 0.07 | 1.99 ± 0.07 | 1.63 ± 0.07
x1 = 0.1997 | 5.49 ± 0.08 | 4.24 ± 0.08 | 3.4 ± 0.07 | 2.63 ± 0.07 | 2.17 ± 0.07
x1 = 0.3015 | 7.06 ± 0.09 | 5.36 ± 0.08 | 4.21 ± 0.08 | 3.42 ± 0.07 | 2.87 ± 0.07
x1 = 0.3996 | 9.09 ± 0.11 | 6.89 ± 0.09 | 5.39 ± 0.08 | 4.34 ± 0.08 | 3.58 ± 0.08
x1 = 0.4986 | 12.1 ± 0.44 | 9.09 ± 0.11 | 7.06 ± 0.1 | 5.65 ± 0.09 | 4.64 ± 0.08
x1 = 0.5998 | 15.89 ± 0.46 | 11.72 ± 0.44 | 8.97 ± 0.11 | 7.08 ± 0.1 | 5.66 ± 0.09
x1 = 0.7008 | 20.24 ± 0.48 | 14.76 ± 0.46 | 10.88 ± 0.13 | 8.47 ± 0.11 | 6.81 ± 0.1
x1 = 0.8005 | 25.11 ± 0.51 | 17.87 ± 0.47 | 13.31 ± 0.45 | 10.27 ± 0.13 | 8.17 ± 0.11
x1 = 0.9002 | 30.71 ± 0.56 | 21.99 ± 0.5 | 16.11 ± 0.47 | 12.25 ± 0.45 | 9.62 ± 0.13
x1 = 0.946 | 34.98 ± 0.6 | 24.14 ± 0.52 | 17.68 ± 0.48 | 13.52 ± 0.46 | 10.63 ± 0.14
x1 = 1 | 38.41 ± 0.64 | 26.31 ± 0.54 | 19.03 ± 0.49 | 14.3 ± 0.46 | 11.1 ± 0.45
